Eleven molecules from patent publication US20150274719A1, “AMINO-SUBSTITUTED IMIDAZO[1,2-A]PYRIDINECARBOXAMIDES AND THEIR USE” (BAYER PHARMA AKTIENGESELLSCHAFT, priority 2012, published 2015) can be followed below.

Data set [1] is described as follows: Determination of pharmacokinetic parameters following intravenous and oral administration (rats). In kind it is in vivo, male Wistar rats. The following applies: intravenous administration in rats. Here is the method: B-6. Determination of Pharmacokinetic Parameters Following Intravenous and Oral Administration
The pharmacokinetic parameters of the compounds according to the invention are determined in male CD-1 mice, male Wistar rats and female beagles. Intravenous administration in the case of mice and rats is carried out by means of a species-specific plasma/DMSO formulation, and in the case of dogs by means of a water/PEG400/ethanol formulation. In all species, oral administration of the dissolved substance is performed via gavage, based on a water/PEG400/ethanol formulation. The taking of blood from rats is simplified by inserting a silicone catheter into the right Vena jugularis externa prior to substance administration. The operation is carried out at least one day prior to the experiment with […] and administration of an analgesic (atropin/Rimadyl (3/1) 0.1 ml s.c.). The blood is taken (generally more than 10 time points) within a time window including terminal time points of at least 24 to a maximum of 72 hours after substance administration. When the blood is taken, it is passed into heparinised tubes. Then the blood plasma is obtained by centrifugation and is optionally stored at −20° C. until further processing.
An internal standard (which may also be a chemically unrelated substance) is added to the samples of the compounds according to the invention, calibration samples and qualifiers, and there follows protein precipitation by means of excess acetone. Addition of a buffer solution matched to the LC conditions, and subsequent vortexing, is followed by centrifugation at 1000 g. The supernatant is analysed by LC-MS/MS using C18 reversed-phase columns and variable mobile phase mixtures. The substances are quantified via the peak heights or areas from extracted ion chromatograms of specific selected ion monitoring experiments.
The plasma concentration/time plots determined are used to calculate the pharmacokinetic parameters such as AUC, Cmax, t1/2 (terminal half life), F (bioavailability), MRT (mean residence time) and CL (clearance), using a validated pharmacokinetic calculation program.
Since the substance quantification is carried out in plasma, it is necessary to determine the blood/plasma distribution of the substance in order to be able to adjust the pharmacokinetic parameters correspondingly. For this purpose, a defined amount of substance is incubated in heparinized whole blood of the species in question in a rocking roller mixture for 20 min. After centrifugation at 1000 g, the plasma concentration is measured (by means of LC-MS/MS; see above) and determined by calculating the ratio of the Cblood/Cplasma value.

The target in data set [2] is T1, recombinant guanylate cyclase reporter cell line (Rattus norvegicus, UniProt P19686+P20595).
T1 construct: expressed in transfected cells; host or cells: recombinant reporter cell line
T1 sequence (P19686 1-690): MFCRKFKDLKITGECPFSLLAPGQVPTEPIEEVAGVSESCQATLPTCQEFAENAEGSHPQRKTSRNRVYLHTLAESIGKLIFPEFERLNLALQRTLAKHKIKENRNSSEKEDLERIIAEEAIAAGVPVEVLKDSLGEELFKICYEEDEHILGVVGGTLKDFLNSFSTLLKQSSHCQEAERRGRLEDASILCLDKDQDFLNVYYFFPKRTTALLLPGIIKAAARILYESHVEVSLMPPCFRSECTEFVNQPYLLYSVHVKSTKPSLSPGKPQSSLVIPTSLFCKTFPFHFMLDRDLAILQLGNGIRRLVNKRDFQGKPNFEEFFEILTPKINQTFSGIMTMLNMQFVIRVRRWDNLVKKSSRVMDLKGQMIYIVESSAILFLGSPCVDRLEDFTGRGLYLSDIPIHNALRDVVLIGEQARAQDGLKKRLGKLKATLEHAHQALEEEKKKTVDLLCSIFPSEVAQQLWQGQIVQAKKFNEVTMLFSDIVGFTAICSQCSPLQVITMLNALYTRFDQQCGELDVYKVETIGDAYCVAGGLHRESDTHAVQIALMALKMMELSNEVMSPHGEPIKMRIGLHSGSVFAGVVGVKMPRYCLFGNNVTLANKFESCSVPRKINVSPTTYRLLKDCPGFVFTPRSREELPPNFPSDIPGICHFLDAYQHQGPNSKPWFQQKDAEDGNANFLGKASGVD
T1 sequence (P20595 1-619): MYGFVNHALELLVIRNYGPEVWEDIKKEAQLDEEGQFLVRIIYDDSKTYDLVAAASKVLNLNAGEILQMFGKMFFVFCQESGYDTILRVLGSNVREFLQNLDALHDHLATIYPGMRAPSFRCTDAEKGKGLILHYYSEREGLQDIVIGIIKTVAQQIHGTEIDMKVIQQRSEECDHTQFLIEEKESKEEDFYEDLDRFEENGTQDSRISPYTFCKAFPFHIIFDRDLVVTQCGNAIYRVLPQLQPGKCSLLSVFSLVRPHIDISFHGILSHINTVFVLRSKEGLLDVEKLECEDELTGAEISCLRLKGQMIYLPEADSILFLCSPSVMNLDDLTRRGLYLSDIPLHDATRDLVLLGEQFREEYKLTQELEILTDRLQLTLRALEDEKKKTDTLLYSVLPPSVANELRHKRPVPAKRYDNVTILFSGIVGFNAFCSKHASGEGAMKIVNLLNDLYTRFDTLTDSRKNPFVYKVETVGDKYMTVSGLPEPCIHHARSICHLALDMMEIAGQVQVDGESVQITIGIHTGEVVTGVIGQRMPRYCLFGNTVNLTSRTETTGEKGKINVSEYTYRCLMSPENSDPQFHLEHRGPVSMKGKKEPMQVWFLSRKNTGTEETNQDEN
Nature of the data set: Action on recombinant guanylate cyclase reporter cell line. In kind it is cell-based. Conditions: in some cases mean values from individual determinations. An outline of the steps: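 MEC values, meaning the lowest concentration producing a detectable response, were taken from a recombinant cyclase reporter cell assay. Where repeated, individual determinations were averaged.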

Where [3] appears, read: male, Wistar, rat, plasma, iv, read-out: MRT.

The structures appear in SMILES notation. Structures can show the parent of a compound that is named as a salt. Where two headings read alike, the source gives them in different places.

For orientation: MRT means a mean duration of stay, worked out from the concentration-time curve. One may read the half-life as how long it takes for the measured level to halve. A high value points to slow decline. In data set [1], `Cc1cc(OCc2c(F)ccc(F)c2F)c2nc(C)c(C(=O)NCC(C)(N)CCC(F)(F)F)n2c1` (single isomer, unassigned) [Example 410, ent-N-(2-amino-5,5,5-trifluoro-2-methylpentyl)-2,6-dimethyl-8-[(2,3,6-trifluorobenzyl)oxy]imidazo[1,2-a]pyridine-3-carboxamide] returned an AUCnorm of 0.21 kg·h/L, a CLblood of 46.2 mL/min/kg and an MRT of 5.4 h. For the same molecule, the half-life in data set [1] (male, Wistar, rat, plasma, iv) is 4.3 h. The “MEC (minimal effective concentration)” value in data set [2] is 0.10 µM.

In data set [1], `CCCC(C)(N)CNC(=O)c1c(C)nc2c(OCc3c(F)ccc(F)c3F)cc(C)cn12` (single isomer, unassigned) [Example 295, ent-N-(2-amino-2-methylpentyl)-2,6-dimethyl-8-[(2,3,6-trifluorobenzyl)oxy]imidazo[1,2-a]pyridine-3-carboxamide] displayed an AUCnorm of 0.56 kg·h/L and a CLblood of 20.5 mL/min/kg. This molecule showed a half-life in data set [1] (male, Wistar, rat, plasma, iv) of 6.6 h. In addition, in data set [1] (setting [3]), the MRT amounted to 8.8 h. Moreover, the “MEC (minimal effective concentration)” value in data set [2] was 0.10 µM.

In data set [1], `Cc1cc(OCc2c(F)cccc2F)c2nc(C)c(C(=O)NCC(C)(N)C3CC3)n2c1` (single isomer, unassigned; enantiomer b) [Example 261, ent-N-(2-Amino-2-cyclopropylpropyl)-8-[(2,6-difluorobenzyl)oxy]-2,6-dimethylimidazo[1,2-a]-pyridine-3-carboxamide (Enantiomer B)] returned an AUCnorm of 0.47 kg·h/L and a CLblood of 38.2 mL/min/kg. Also, the half-life in data set [1] (male, Wistar, rat, plasma, iv) was 3.7 h. Besides, the MRT in data set [1] (setting [3]) came to 4.7 h. The “MEC (minimal effective concentration)” value in data set [2] turned out to be 0.10 µM.

On to `CCCC(C)(N)CNC(=O)c1c(C)nc2c(OCc3c(F)cccc3F)cc(C3CC3)cn12` (single isomer, unassigned; enantiomer b) [Example 281, ent-N-(2-amino-2-methylpentyl)-6-cyclopropyl-8-[(2,6-difluorobenzyl)oxy]-2-methylimidazo[1,2-a]pyridine-3-carboxamide (Enantiomer B)], for which, in data set [1], the AUCnorm was 0.28 kg·h/L and the CLblood worked out at 39 mL/min/kg. The same molecule showed a half-life in data set [1] (male, Wistar, rat, plasma, iv) of 5.5 h. Moreover, the MRT in data set [1] (setting [3]) amounted to 6.9 h. The “MEC (minimal effective concentration)” value in data set [2] was 0.3 µM.

In data set [1], `CCCC(C)(N)CNC(=O)c1c(C)nc2c(OCc3c(F)cccc3F)cc(C(F)F)cn12` (single isomer, unassigned; enantiomer b) [Example 289, ent-N-(2-amino-2-methylpentyl)-8-[(2,6-difluorobenzyl)oxy]-6-(difluoromethyl)-2-methyl-imidazo[1,2-a]pyridine-3-carboxamide Formate (Enantiomer B)] had an AUCnorm of 0.38 kg·h/L and a CLblood of 41.8 mL/min/kg. In addition, in data set [1] (male, Wistar, rat, plasma, iv), the half-life is 4.4 h. Besides, in data set [1] (setting [3]), the MRT stood at 6.8 h. Further, in data set [2], the “MEC (minimal effective concentration)” value was determined as 0.3 µM.

In data set [1], `Cc1cc(OCc2c(F)cccc2F)c2nc(C)c(C(=O)NCC(C)(N)CCC(F)(F)F)n2c1` (single isomer, unassigned) [Example 409, ent-N-(2-amino-5,5,5-trifluoro-2-methylpentyl)-8-[(2,6-difluorobenzyl)oxy]-2,6-dimethylimidazo[1,2-a]pyridine-3-carboxamide] displayed an AUCnorm of 0.28 kg·h/L, a CLblood of 35.8 mL/min/kg, an MRT of 7.4 h and a t1/2 of 5.8 h. In data set [2], the “MEC (minimal effective concentration)” value was determined as 0.03 µM.

In data set [1], `Cc1cc(OCc2c(F)cccc2F)c2nc(C)c(C(=O)NC[C@H]3CCCCN3)n2c1` [Example 173, 8-[(2,6-Difluorobenzyl)oxy]-2,6-dimethyl-N-[(2R)-piperidin-2-ylmethyl]imidazo[1,2-a]pyridine-3-carboxamide] came in with an AUCnorm of 0.54 kg·h/L and a CLblood of 28 mL/min/kg. The half-life in data set [1] (male, Wistar, rat, plasma, iv) was 3.3 h. In addition, the MRT in data set [1] (setting [3]) was determined as 3.9 h. The “MEC (minimal effective concentration)” value in data set [2] was 0.30 µM.

For `Cc1cc(OCc2c(F)cccc2F)c2nc(C)c(C(=O)NCC(N)C(C)C)n2c1` (single isomer, unassigned) [Example 223, ent-N-(2-Amino-3-methylbutyl)-8-[(2,6-difluorobenzyl)oxy]-2,6-dimethylimidazo[1,2-a]pyridine-3-carboxamide], in data set [1], the AUCnorm stood at 0.87 kg·h/L and the CLblood is 18.2 mL/min/kg. This molecule showed a half-life in data set [1] (male, Wistar, rat, plasma, iv) of 4.8 h. Also, the MRT in data set [1] (setting [3]) turned out to be 6.1 h. Further, the “MEC (minimal effective concentration)” value in data set [2] was 0.30 µM.

For the molecule `Cc1cc(OCc2c(F)ccc(F)c2F)c2nc(C)c(C(=O)NCC(C)(N)CF)n2c1` (single isomer, unassigned; enantiomer a) [Example 285, ent-N-(2-amino-3-fluoro-2-methylpropyl)-2,6-dimethyl-8-[(2,3,6-trifluorobenzyl)oxy]imidazo[1,2-a]pyridine-3-carboxamide (Enantiomer A)], in data set [1], the AUCnorm turned out to be 0.54 kg·h/L and the CLblood is 17 mL/min/kg. The same molecule had a half-life in data set [1] (male, Wistar, rat, plasma, iv) of 3.6 h. Also, the MRT in data set [1] (setting [3]) was 4.4 h. Moreover, the “MEC (minimal effective concentration)” value in data set [2] stood at 0.3 µM.

Turning to `Cc1cc(OCc2c(F)ccc(F)c2F)c2nc(C)c(C(=O)NCC(C)(N)CF)n2c1` (single isomer, unassigned; enantiomer b) [Example 286, ent-N-(2-amino-3-fluoro-2-methylpropyl)-2,6-dimethyl-8-[(2,3,6-trifluorobenzyl)oxy]imidazo[1,2-a]pyridine-3-carboxamide (Enantiomer B)], in data set [1], the AUCnorm stood at 0.82 kg·h/L, the CLblood is 23.2 mL/min/kg, the MRT is reported as 4.5 h and the t1/2 is 3.8 h. For the same molecule, the “MEC (minimal effective concentration)” value in data set [2] worked out at 0.1 µM.

In data set [1], `CCC(C)(N)CNC(=O)c1c(C)nc2c(OCc3c(F)cccc3F)cc(C(F)F)cn12` (single isomer, unassigned; enantiomer a) [Example 287, ent-N-(2-amino-2-methylbutyl)-8-[(2,6-difluorobenzyl)oxy]-6-(difluoromethyl)-2-methylimidazo[1,2-a]pyridine-3-carboxamide Formate (Enantiomer A)] showed an AUCnorm of 0.66 kg·h/L and a CLblood of 29.3 mL/min/kg. This molecule showed a half-life in data set [1] (male, Wistar, rat, plasma, iv) of 5.4 h. The MRT in data set [1] (setting [3]) worked out at 8.4 h. In data set [2], the “MEC (minimal effective concentration)” value came to 0.3 µM.
